Experimental findings from US11224577B2, “Treating infection by a platelet-targeting microbe using nanoparticles” (The Regents of the University of California, priority 2015, dated 2022) are described below.

This data set is classed as physicochemical. The method, then:
100 nm polymeric cores were prepared using 0.67 dL g^−1 carboxyl-terminated 50:50 poly(lactic-co-glycolic) acid (PLGA) (LACTEL Absorbable Polymers) in a nanoprecipitation process. 1 mL of 10 mg mL^−1 PLGA solution in acetone was added dropwise to 3 mL of water. For fluorescently labeled nanoformulations, 1,1′-dioctadecyl-3,3,3′,3′-tetramethylindodicarbocyanine perchlorate (DiD, ex=644 nm/em=665 nm, Life Technologies) was loaded into the polymeric cores at 0.1 wt %. The mixture was then stirred in open air for 1 h and placed in vacuum for another 3 h. The resulting nanoparticle solution was filtered with 10 kDa MWCO Amicon Ultra-4 Centrifugal Filters (Millipore). Platelet membrane cloaking was then accomplished by dispersing and fusing platelet membrane vesicles with PLGA particles via sonication using an FS30D bath sonicator at a frequency of 42 kHz and a power of 100 W for 2 min. […] The nanoparticle solutions were subject to either a freeze-thaw cycle or lyophilization followed by resuspension. The resulting particle solution was then monitored for particle size using DLS. […] RBCNPs were prepared using the same polymeric cores and RBC membranes of equivalent total surface area to the platelet membranes using a previously described protocol^16.

Turning to PNPs, the colloidal stability result was “Improved colloidal stability”; the “size and stability after storage” value was “retain their size and stability”.
